{
  "source": "patent EP3888661A1",
  "about": "“COMPOSITIONS COMPRISING 2 -FUCOSYLLACTOSE TO PREVENT VIRAL INFECTIONS” (FrieslandCampina Nederland B.V., priority 2020, dated 2021)",
  "key": {"[1]": {"system": "anaerobic microbiota from human origin", "experiment": "TIM-2 in vitro fermentation model of the human colon, SCFA/acetate production", "excerpt": "The in vitro fermentation studies were done using the TIM-2 model. This is a validated, dynamic, computer-controlled model that simulates the human colon, mimicking body temperature, lumen pH, absorption of water and microbial metabolites through a semipermeable membrane inside the model, mixing and transporting the intestinal contents with peristaltic movements, using an anaerobic microbiota from human origin, it corresponds basically to the model as described in Minekus, M., etal. Appl. Microbiol. Biotechnol. 1999 53, 108-114. doi: 10.1007/ s002530051622 and Kortman et al., Frontiers in Microbiology 2016, 6, 1481. Characteristics of the movements of the contents in the TIM-2 system was simulated using an increase of the pH and peristaltic movements of the contents in the system using peristaltic pumps as described in Minekus, M (1998. Development and validation of a dynamic model of the gastrointestinal tract. PhD thesis, Delft University of Technology, The Netherlands).\nSCFA analysis was performed at Brightlabs B.V., Venlo, The Netherlands), according to (Sáyago-Ayerdi SG, et al. Food Research International, E-pub date 13 December 2017; Sayago Ayerdi et al Food Research International 118 (2019) 89-95). […]\nSamples (1 mL) were taken for Short Chain Fatty Acid (SCFA) analysis after 1, 2, 4, 6, 8 and 24 h after test product insertion; cumulative absolute amounts of SCFA were determined. […]"}, "[2]": {"details": "cited from earlier work"}},
  "data": [
    {"smiles": "C[C@@H]1O[C@@H](O[C@H]2[C@H](O[C@H]3[C@H](O)[C@@H](O)C(O)O[C@@H]3CO)O[C@H](CO)[C@H](O)[C@@H]2O)[C@@H](O)[C@H](O)[C@@H]1O", "note": "(stereo partly drawn) [2'-FL, 2'-Fucosyllactose]", "values": [
      {"measurement": "acetate production", "setting": "[1]; 7.5 gram test product as single shot, cumulative acetate produced between 8 and 24 hours after insertion, representing the distal colon, pooled fecal microbiota of 20 healthy subjects", "result": 17, "unit": "mmol"},
      {"measurement": "acetate production", "setting": "[1]; fecal microbiota samples of lean and of obese subjects in the TIM-2 model system", "result": "An increase in the acetate production was observed"},
      {"measurement": "daily dosage tested as safe", "setting": "[2]", "result": 20, "unit": "g"}
    ]}
  ]
}
